# BindingDB's records for doi:10.1021/jm900075g (Wyeth Research, 2009)
# Biological target: RAC-alpha serine/threonine-protein kinase (Homo sapiens, UniProt P31749)
# Assay: Homogeneous Time-Resolved Fluorescence Resonance Energy Transfer Lance Assay
# Conditions: pH 7.4; 22 °C
# Protocol: AKT1 was assayed using constitutively active Myr-AKT1 in low-binding 96-well plates. The kinase reactions were initiated by the addition of assay mix containing kinase assay buffer, ATP, and a biotinylated substrate peptide. After incubation, Phosphorylated biotin-GSK3alpha was detected by the time-resolved fluorescence resonance energy transfer Lance format with all reagents obtained from Perkin-Elmer. Subsequently, the plates were read in a Victor plate reader (Wallac/Perkin-Elmer).
# Chain of RAC-alpha serine/threonine-protein kinase (P31749 whole entry): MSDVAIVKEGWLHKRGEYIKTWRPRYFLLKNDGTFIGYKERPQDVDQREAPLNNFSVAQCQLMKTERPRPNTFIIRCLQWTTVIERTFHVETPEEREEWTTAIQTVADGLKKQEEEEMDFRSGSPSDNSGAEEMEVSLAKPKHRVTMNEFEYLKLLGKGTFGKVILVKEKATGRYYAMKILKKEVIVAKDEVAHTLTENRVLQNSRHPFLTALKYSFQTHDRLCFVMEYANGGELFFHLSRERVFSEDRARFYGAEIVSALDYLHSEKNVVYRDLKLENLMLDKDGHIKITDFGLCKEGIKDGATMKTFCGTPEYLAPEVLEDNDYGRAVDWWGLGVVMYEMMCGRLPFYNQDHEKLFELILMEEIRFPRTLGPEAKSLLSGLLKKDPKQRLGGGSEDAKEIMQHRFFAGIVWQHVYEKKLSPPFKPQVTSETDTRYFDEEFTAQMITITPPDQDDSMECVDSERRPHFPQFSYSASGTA
row,Compound,IC50
1,C[C@H]1O[C@@H]2CC(=O)O[C@@H]2C2=C1C(=O)c1c(ccc(C3C[C@@H](N(C)C)[C@H](O)[C@@H](C)O3)c1O)C2=O (some centres undefined) [Lactoquinomycin A],149 nM
2,"O=C1C[C@H]2O[C@@H](c3ccsc3)C3=C(C(=O)c4ccccc4C3=O)[C@H]2O1 [Pyranonaphthoquinone (PNQ) lactone, 11f]",122 nM
3,C[C@H]1O[C@@H]2CC(=O)O[C@@H]2C2=C1C(=O)c1c(O)cccc1C2=O,313 nM
4,"O=C1C[C@@H]2O[C@H](c3ccsc3)C3=C(C(=O)c4ccccc4C3=O)[C@@H]2O1 [Pyranonaphthoquinone (PNQ) lactone, 11e]",99 nM
